Patent US7858806B2, “Crystal form of 5-hydroxy-1-methylhydantoin” (Nippon Zoki Pharmaceutical Co., Ltd., priority 2002, dated 2010)
Entries after “also recorded” stand apart in the source; their conditions may differ. One block for each molecule: values may come before it.

Key:
Format in all cases: physicochemical
[1] = Measurement of bulk density (graduated cylinder, before and after tight packing); settings: 40 g in graduated cylinder; for Bulk Density After Tight Packing: after patting until volume unchanged
Description: Each 40 g of the I-form crystals produced in Reference Example 1 and the II-form crystals produced in Example 2 were placed in a graduated cylinder to measure the volume whereby bulk density was calculated. After that, each graduated cylinder was lightly patted by hand under the same condition until the volume of the dry powder became unchanged so that the crystals were tightly packed. The volume after the tight packing was measured and bulk density was calculated.

[2] = Adhesion onto solid surface during handling; settings: II-form compared with I-form crystals, after various handlings
Description: In addition, in the II-form crystals of the present invention, the bulk density is higher than in the I-form crystals and the volume for the same weight is small whereby it is now possible to manufacture small tablets and so to provide the tablets which are easily administered to patients. The advantage of high bulk density is also advantageous in terms of storage and handling when production is conducted in an industrial scale. Further, it has been found after various handlings of both II-form crystals and I-form crystals that adhesion onto the solid surface such as glass wall is lower in the II-form crystals than in the I-form crystals. Accordingly, in the case of the II-form crystals, loss during the manufacture can be reduced and labor such as cleaning and checking for removal of adhered things to the manufacturing devices and apparatuses can be reduced as well.

[3] = Stability of the crystal form
[4] = Solubility in water

- Bulk Density After Tight Packing ([1]; listed as II-form Crystals): 0.64 g/mL
- Bulk Density Before Tight Packing ([1]; listed as II-form Crystals): 0.54 g/mL
- adhesion onto the solid surface such as glass wall [2]: lower
- stability [3]: sufficient stability
SMILES: CN1C(=O)NC(=O)C1O (stereo not shown) [II-form crystals, 5-hydroxy-1-methylimidazolidin-2,4-dione]

- Bulk Density After Tight Packing ([1]; listed as I-form Crystals): 0.46 g/mL
- Bulk Density Before Tight Packing ([1]; listed as I-form Crystals): 0.35 g/mL
SMILES: CN1C(=O)NC(=O)C1O (stereo not shown) [I-form crystals, 5-hydroxy-1-methylimidazolidin-2,4-dione, reference compound]

SMILES: CN1C(=O)NC(=O)C1O (stereo not shown) [5-hydroxy-1-methylhydantoin, 5-hydroxy-1-methylimidazolidin-2,4-dione]
- solubility in water [4]: very highly soluble in water; also recorded: very easily soluble in water
